Read-outs that look alike come from different tables or passages of the source.
Assays:
hemorrhagic shock [1] = test: Resuscitation from hemorrhagic shock, hamster window chamber model: systemic parameters; conditions: for BP / HR / Hb / Hct / Lactate / pCO2 / pO2 / pH: mean ± SD; for pH: arterial
Method: (§1) Experiments were performed in 55-65 g male Golden Syrian Hamsters (Charles River Laboratories, Boston, Mass.) fitted with a dorsal skinfold window chamber. Animal handling and care followed the NIH Guide for the Care and Use of Laboratory Animals. The hamster window chamber model is widely used for microvascular studies in the unanesthetized state. The complete surgical technique is described in detail elsewhere, such as in Colantuoni et al. in Am J Physiol 1984; 246:H508-17. Three to four days after the initial surgery, the microvasculature was examined and only animals passing an established systemic and microcirculatory inclusion criteria, as previously described (e.g., in Cabrales P. Low dose nitrite enhances perfusion after fluid resuscitation from hemorrhagic shock. Resuscitation 2009; 80: 1431-6), were entered into the study.
(§2) Acute hemorrhage was induced by withdrawing 50% of estimated total blood volume (BV) via the carotid artery catheter within 5 min. Total BV was estimated as 7% of body weight. One hour after hemorrhage induction, animals received 25% of BY of resuscitation (200 μl/min) via the jugular vein catheter, implemented with the volume resuscitation strategy defined by the group name, according to the scheme described before.
(§3) Fresh blood was collected from a donor, adult male Golden Syrian Hamsters (60-80 g). Briefly, hamster donors were anaesthetized, left carotid artery catheter was implanted, and blood was allowed to flow into heparinized tubes (sodium heparin 15 IU/mL). RBCs and plasma were separated by centrifugation (2700 rpm, 7 min). Buffy coat was discarded. RRx-001 treated cells were prepared by incubation of 1 mL of packed cells with 2 mg of RRx-001 for 30 minutes at 4° C., cells were rinsed 2× by centrifugation at 3,000 rpm with phosphate buffer saline (PBS) solution with 0.5% albumin (pre-filtered 0.22 μm, pH 7.4). After the final wash, red blood cells (RBCs) were adjusted to a 30% Het with fresh plasma.
(§4) For the groups that received “nitrite,” 10 μM (in saline 100 μL) of sodium nitrite in saline was infused via the carotid artery catheter 10 minutes after resuscitation for the groups that received nitrite. An equal volume of saline was given to the other groups. To address effects of instrumentation and observation, an additional Sham group was included.
(§5) Conscious animal was placed in a restraining tube with a longitudinal slit from which the window chamber protruded, then fixed to the microscopic stage for transillumination with the intravital microscope (BX51WI, Olympus, New Hyde Park, N.Y.). Animals were given 20 min to adjust to the tube environment before any measurements were made. The tissue image was projected onto a charge-coupled device camera (4815, COHU, San Diego, Calif.) connected to a videocassette recorder and viewed on a monitor. Measurements were carried out using a 40× (LUMPFL-WIR, numerical aperture 0.8, Olympus) water immersion objective. Systemic (MAP, HR, Het, Hb, PaO2, PaCO2, pH, lactate, plasma nitrite, and metHb) and microvascular (artciorlar and venular diameters, blood flow, and FCD) parameters were analyzed, as previously described (e.g., in P. Nachuraju et al. in Resuscitation 2011; 82:607-613; Cabrales P. in Resuscitation 2009; 80:1431-6; Cabrales et al. in Shock 2007; 27:380-9; and Cabrales et al. in Am J Physiol 2004; 287:H363-73) before hemorrhage (baseline), after hemorrhage (shock), and up to 90 min after volume replacement (resuscitation). Tissue viability was measured at 8 hours following hemorrhage as described previously (e.g., in Yang et al. In Invest Ophthalmol Vis Sci 2003; 44:1993-1997; and Cabrales et al. in Antioxid Redox Signal 2007; 9:375-84).
(§6) Table and figure results are presented as mean±SD.

hemorrhagic shock [2] = test: Resuscitation from hemorrhagic shock, hamster window chamber model: microvascular measurements; type: in vivo, Golden Syrian Hamsters; conditions: for functional capillary density (FCD), baseline average and standard deviation: before hemorrhage (FIG. 11)
Method: as §1, §2, §3, §4, §5, §6

hemorrhagic shock [3] = conditions: 50 μM nitrite, previous study, cited from earlier work
hemorrhagic shock [4] = type: in vivo, Golden Syrian Hamsters
Method: as §1
Acute hemorrhage was induced by withdrawing 50% of estimated total blood volume (BV) via the carotid artery catheter within 5 min. Total BV was estimated as 7% of body weight. […]
as §5, with “Animals were given 20 min to adjust to the tube environment before any measurements were made. The tissue image was projected onto a charge-coupled device camera (4815, COHU, San Diego, Calif.) connected to a videocassette recorder and viewed on a monitor. Measurements were carried out using a 40× (LUMPFL-WIR, numerical aperture 0.8, Olympus) water immersion objective.” left out, “9:375-84). […]” for “9:375-84).”

blood sample = test: Nitric oxide production in a sample of blood with sodium nitrite (Tonometer, chemiluminescent NO analysis); type: cell-based; conditions: anaerobic conditions (N2 atmosphere), 30 min, 37° C., compared to without ABDNAZ or with ABDNAZ under air
Method: The ability of ABDNAZ to increase nitric oxide production in a sample of blood under aerobic conditions and anaerobic conditions was evaluated.
A 0.5 mL aliquot of blood was placed in a tonometer. ABDNAZ (5 μL of a 300 mM solution of ABDNAZ in dimethylsulfoxide) was optionally added to the blood sample in the Tonometer. Sodium nitrite was added to the blood sample to achieve a sodium nitrite concentration of 167 mM. Gas (either air or N2) was passed through the Tonometer at a flow rate of 150 mL/min. Gas exiting the Tonometer was collected in three-minute intervals for a period of thirty minutes. The amount of nitric oxide in each of the collected fractions was measured by a chemiluminescent reaction with ozone in a Sievers Nitric Oxide Analyzer. The amount of nitric oxide produced from the blood sample was expressed per mole of hemoglobin present in the blood sample. All experiments were performed at 37° C.
The amount of hemoglobin (Hb) and hematocrit (Het) in the blood sample was determined using an Advia analyzer.

[5] = Shock (50 min), after hemorrhage, before resuscitation
[6] = Shock (50 min), before resuscitation
[7] = 60 minutes following resuscitation
[8] = 90 minutes following resuscitation
[9] = 8 hours following resuscitation, cells in 40 fields

## O=NO [Nitrite, sodium nitrite]
Hemorrhagic shock [1]; Baseline (before hemorrhage)
  BP: 104.3 ± 9.0 mmHg
  HR: 428 ± 13 bpm
  Hb: 15.2 ± 0.3 g/dL
  Hct: 49.8 ± 0.8%
  Lactate: 1.30 ± 0.13 mmol/L
  pCO2: 52.9 ± 1.2 mmHg
  pO2: 60.5 ± 1.0 mmHg
  pH: 7.34 ± 0.02
Hemorrhagic shock [1]; Resuscitation (30 min)
  BP: 91.3 ± 6.9 mmHg
  HR: 438 ± 21 bpm
Hemorrhagic shock [1]; Resuscitation (60 min)
  BP: 96.3 ± 7.5 mmHg
  HR: 447 ± 21 bpm
  Hb: 9.5 ± 0.2 g/dL
  Hct: 31.0 ± 0.7%
  Lactate: 1.95 ± 0.11 mmol/L
  pCO2: 48.3 ± 2.2 mmHg
  pO2: 76.0 ± 2.9 mmHg
  pH: 7.38 ± 0.02
Hemorrhagic shock [1]; Resuscitation (90 min)
  BP: 94.7 ± 6.5 mmHg
  HR: 459 ± 14 bpm
  Hb: 9.6 ± 0.1 g/dL
  Hct: 31.5 ± 0.4%
  Lactate: 1.71 ± 0.20 mmol/L
  pCO2: 45.0 ± 2.4 mmHg
  pO2: 65.2 ± 3.0 mmHg
  pH: 7.36 ± 0.02
Hemorrhagic shock [1]; [5]
  BP: 46.1 ± 3.6 mmHg
  HR: 455 ± 21 bpm
  Hb: 8.9 ± 0.1 g/dL
  Hct: 29.2 ± 0.5%
Hemorrhagic shock [1]; [6]
  Lactate: 4.52 ± 0.58 mmol/L
  pCO2: 38.9 ± 1.3 mmHg
  pO2: 93.1 ± 2.8 mmHg
  pH: 7.30 ± 0.01
Hemorrhagic shock [1]; hamster, in vivo
  HR compared to the blood group: significantly increased
  MAP compared to the blood group: significantly decreased
  decreases in lactate levels compared to the blood group: did not reach significance
  pH compared to the blood group: significantly increased
  pO2 levels compared to the blood group: significantly increased
Hemorrhagic shock [2]
  functional capillary density (FCD), baseline average and standard deviation: 107±12
Hemorrhagic shock [2]; hamster, in vivo
  functional capillary density (FCD) compared to the blood group: not significantly different
Hemorrhagic shock [3]; [7]
  % metHb: 5.8±1.8%
  Blood pressure compared to 0 μM group (control group): significantly decreased
Hemorrhagic shock [3]; [8]
  % metHb: 3.1±1.3%
Hemorrhagic shock [4]; hamster, in vivo
  number of necrotic cells compared to the blood group: significantly reduced

## O=C(CBr)N1CC([N+](=O)[O-])([N+](=O)[O-])C1 [RRx-001]
Hemorrhagic shock [1]; 60 and 90 minutes post fluid resuscitation (FIG. 9), normal about 1% of total Hb
  metHb levels: normal
Hemorrhagic shock [1]; 30 minutes following resuscitation
  MAP compared to the blood group: only decreased at 30 minutes
Hemorrhagic shock [1]; 60 minutes following resuscitation, RRx-001 treated blood
  metHb levels: 1.4±0.1%
Hemorrhagic shock [1]; 60 minutes post resuscitation
  pH compared to the blood group: significantly increased
Hemorrhagic shock [1]; 60 minutes, comparator not stated
  blood pressure (MAP) after resuscitation from shock: significantly decreased
Hemorrhagic shock [1]; 90 minutes following resuscitation, RRx-001 treated blood
  metHb levels: 1.2±0.1%
Hemorrhagic shock [1]; 90 minutes post resuscitation
  pO2 levels compared to the blood group: significantly increased
Hemorrhagic shock [1]; Baseline (before hemorrhage)
  BP: 106.3 ± 8.7 mmHg
  HR: 409 ± 21 bpm
  Hb: 15.1 ± 0.3 g/dL
  Hct: 49.7 ± 1.0%
  Lactate: 1.39 ± 0.20 mmol/L
  pCO2: 54.2 ± 1.8 mmHg
  pO2: 59.9 ± 2.5 mmHg
  pH: 7.32 ± 0.01
Hemorrhagic shock [1]; RRx-001 treated blood, current study
  blood pressure following resuscitation: maintained blood pressure
Hemorrhagic shock [1]; Resuscitation (30 min)
  BP: 92.5 ± 6.7 mmHg
  HR: 436 ± 12 bpm
Hemorrhagic shock [1]; Resuscitation (60 min)
  BP: 98.5 ± 7.6 mmHg
  HR: 444 ± 10 bpm
  Hb: 9.5 ± 0.2 g/dL
  Hct: 31.1 ± 0.6%
  Lactate: 1.93 ± 0.23 mmol/L
  pCO2: 48.0 ± 3.1 mmHg
  pO2: 70.9 ± 3.4 mmHg
  pH: 7.39 ± 0.01
Hemorrhagic shock [1]; Resuscitation (90 min)
  BP: 106.3 ± 9.0 mmHg
  HR: 453 ± 17 bpm
  Hb: 9.5 ± 0.1 g/dL
  Hct: 31.2 ± 0.6%
  Lactate: 1.63 ± 0.23 mmol/L
  pCO2: 49.0 ± 2.2 mmHg
  pO2: 68.7 ± 2.9 mmHg
  pH: 7.36 ± 0.01
Hemorrhagic shock [1]; [5]
  BP: 46.3 ± 4.0 mmHg
  HR: 422.5 ± 25 bpm
  Hb: 8.9 ± 0.3 g/dL
  Hct: 29.0 ± 0.8%
Hemorrhagic shock [1]; [6]
  Lactate: 4.16 ± 0.39 mmol/L
  pCO2: 39.3 ± 1.2 mmHg
  pO2: 94.9 ± 5.1 mmHg
  pH: 7.28 ± 0.02
Hemorrhagic shock [1]; following resuscitation
  HR compared to the blood group: significantly increased
  pCO2 levels compared to the blood group: not significantly different
Hemorrhagic shock [1]; post-resuscitation
  decreases in lactate levels compared to the blood group: did not reach significance
Hemorrhagic shock [2]; [7]
  blood flow compared to the blood group: significantly (P<0.001) increased
Hemorrhagic shock [2]; [8]
  blood flow compared to the blood group: significantly (P<0.001) increased
Hemorrhagic shock [2]; 90 minutes post resuscitation
  functional capillary density (FCD) compared to the blood group: significant (P<0.05 and P<0.01, respectively) increases
Hemorrhagic shock [2]
  functional capillary density (FCD), baseline average and standard deviation: 112±9
Hemorrhagic shock [4]; [9]
  number of apoptotic cells compared to the blood group: significantly (P<0.01) less
  number of necrotic cells compared to the blood group: significantly (P<0.01) less
Blood sample
  amount of nitric oxide produced by the blood sample: significant increase

— patent publication US11660286B2, “Methods and compositions comprising a nitrite-reductase promoter for treatment of medical disorders and preservation of blood products” (EpicentRx, Inc., priority 2011, dated 2023)
